Seven compounds from BindingDB's records for doi:10.1021/jm9606599 (National Institute of Diabetes and Digestive and Kidney …, 1997) can be followed below.

The experiment is described as follows: Sigma receptor binding was determined by labeling with radioligand [3H](+)-pentazocine on frozen membranes obtained from frozen guinea pig brain.

Turning to `Fc1ccc(C(OCCN2CCN(CCCc3ccco3)CC2)c2ccc(F)cc2)cc1` [1-{2-[Bis-(4-fluoro-phenyl)-methoxy]-ethyl}-4-(3-furan-2-yl-propyl)-piperazine], the IC50 was found to be 62 nM.

The compound `Fc1ccc(C(OCCN2CCN(C/C=C/c3ccccc3)CC2)c2ccc(F)cc2)cc1` had an IC50 of 51 nM.

`Fc1ccc(C(OCCN2CCN(C/C=C/c3cccnc3)CC2)c2ccc(F)cc2)cc1` [1-{2-[Bis-(4-fluoro-phenyl)-methoxy]-ethyl}-4-((E)-3-pyridin-3-yl-allyl)-piperazine] yielded an IC50 of 59 nM.

In the case of `Fc1ccc(C(OCCN2CCN(C/C=C/c3cccs3)CC2)c2ccc(F)cc2)cc1` [1-{2-[Bis-(4-fluoro-phenyl)-methoxy]-ethyl}-4-((E)-3-thiophen-2-yl-allyl)-piperazine], the half-maximal inhibitory concentration (IC50) was found to be 41 nM.

For `Fc1ccc(C(OCCN2CCN(CCCc3cccnc3)CC2)c2ccc(F)cc2)cc1` [1-{2-[Bis-(4-fluoro-phenyl)-methoxy]-ethyl}-4-(3-pyridin-3-yl-propyl)-piperazine], the IC50 stood at 79 nM.

In the case of `Fc1ccc(C(OCCN2CCN(CCCc3cccs3)CC2)c2ccc(F)cc2)cc1` [1-{2-[Bis-(4-fluoro-phenyl)-methoxy]-ethyl}-4-(3-thiophen-2-yl-propyl)-piperazine], the IC50 was 38 nM.

On to `Fc1ccc(C(OCCN2CCN(C/C=C/c3ccco3)CC2)c2ccc(F)cc2)cc1` [1-{2-[Bis-(4-fluoro-phenyl)-methoxy]-ethyl}-4-((E)-3-furan-2-yl-allyl)-piperazine], for which the half-inhibitory concentration (IC50) amounted to 43 nM.
